Reference: patent publication US11191762B2, “Alkyl substituted triazole compounds as agonists of the APJ Receptor” (priority 2016, dated 2021)

Molecular target: human APJ receptor (Homo sapiens (Human), UniProt P35414)
Assay: biochemical
Type: biochemical
Settings: not given
In short: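 [35S]GTPγS binding to membranes from CHO cells stably expressing human APJ, captured on WGA PS beads (5 μg/well). Buffer: 20 mM HEPES pH 7.5, 5 mM MgCl2, 100 mM NaCl, 0.1% BSA, with 3 μM GDP and 0.1 nM [35S]GTPγS final; compounds tested as 22-point 2-fold dilutions.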

human APJ receptor, sequence (P35414 whole entry): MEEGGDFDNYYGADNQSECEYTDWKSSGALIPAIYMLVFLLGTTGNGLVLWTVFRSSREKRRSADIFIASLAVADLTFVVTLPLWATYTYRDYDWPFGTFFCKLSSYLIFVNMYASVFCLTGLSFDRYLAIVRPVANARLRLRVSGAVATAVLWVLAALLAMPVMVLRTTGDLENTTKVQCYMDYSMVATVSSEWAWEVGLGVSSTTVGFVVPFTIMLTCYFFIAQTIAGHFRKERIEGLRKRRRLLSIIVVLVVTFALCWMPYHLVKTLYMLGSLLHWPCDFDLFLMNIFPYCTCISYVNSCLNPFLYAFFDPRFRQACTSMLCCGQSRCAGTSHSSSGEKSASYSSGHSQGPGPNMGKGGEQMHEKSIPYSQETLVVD

Compound | EC50 [nM]
COc1cccc(OC)c1-n1c(COC(F)F)nnc1NS(=O)(=O)[C@@H](C)[C@H](OC)c1ncc(Cl)cn1 [Example 65.0, (1R,2S)-1-(5-chloro-2-pyrimidinyl)-N-(5-((difluoromethoxy)methyl)-4-(2,6-dimethoxyphenyl)-4H-1,2,4-triazol-3-yl)-1-methoxy-2-propanesulfonamide] | 5.7
[2H]C([2H])([2H])OCc1nnc(NS(=O)(=O)[C@@H](C)[C@H](OC)c2ncc(Cl)cn2)n1-c1c(OC)cccc1OC [Example 129.0, (1R,2S)-1-(5-chloro-2-pyrimidinyl)-N-(4-(2,6-dimethoxyphenyl)-5-(((˜2-H_3_)methyloxy)methyl)-4H-1,2,4-triazol-3-yl)-1-methoxy-2-propanesulfonamide] | 4.3

Same assay, conditions: [35S]GTPγS binding, membranes from CHO cells stably expressing human APJ receptor; read-out: Activity hAPJ SPA EC50 IP

Compound | EC50 [nM]
CO[C@H](c1ncc(Cl)cn1)[C@H](C)S(=O)(=O)Nc1nnc(C)n1C1(C)CC1 [Example 55.0, (1R,2S)-1-(5-chloropyrimidin-2-yl)-1-methoxy-N-(5-methyl-4-(1-methylcyclopropyl)-4H-1,2,4-triazol-3-yl)propane-2-sulfonamide] | 540
COCc1nnc(NS(=O)(=O)[C@@H](C)[C@H](OC)c2ncc(Cl)cn2)n1C1(C)CC1 [Example 59.0, (1R,2S)-1-(5-chloropyrimidin-2-yl)-1-methoxy-N-(5-(methoxymethyl)-4-(1-methylcyclopropyl)-4H-1,2,4-triazol-3-yl)propane-2-sulfonamide] | 33
COCc1nnc(NS(=O)(=O)[C@@H](C)[C@H](OC)c2ncc(Cl)cn2)n1C1CCOCC1 [Example 63.0, (1R, 2S)-1-(5-chloropyrimidin-2-yl)-1-methoxy-N-(5-(methoxymethyl)-4-(tetrahydro-2H-pyran-4-yl)-4H-1,2,4-triazol-3-yl)propane-2-sulfonamide] | 10
COc1ncnc(OC)c1-n1c(CC(F)(F)F)nnc1NS(=O)(=O)[C@@H](C)[C@H](OC)c1ncc(Cl)cn1 [Example 67.0, (1R,2S)-1-(5-chloropyrimidin-2-yl)-N-(4-(4,6-dimethoxypyrimidine-5-yl)-5-(2.2.2-trifluoroethyl)-4H-1.2.4-triazol-3-yl)-1-methoxypropane-2-sulfonamide] | 230
COCc1nnc(NS(=O)(=O)[C@@H](C)[C@H](C)c2cnc(OC)cn2)n1-c1c(OC)cccc1OC [Example 74.0, (2S,3R)-N-(4-(2,6-dimethoxyphenyl)-5-(methoxymethyl)-4H-l,2,4-triazol-3-yl)-3-(5-methoxypyrazin-2-yl)butane-2-sulfonamide] | 16
COc1ncnc(OC)c1-n1c(COC(C)C)nnc1NS(=O)(=O)[C@@H](C)[C@H](OC)c1ncc(Cl)cn1 [Example 79.0, (1R,2S)-1-(5-chloropyrimidin-2-yl)-N-(4-(4.6-dimethoxypyrimidin-5-yl)-5-(isopropoxymethyl)-4H-1,2,4-triazol-3-yl)-1-methoxypropane-2-sulfonamide] | 2.9
COc1ncnc(OC)c1-n1c(COC(C)C)nnc1NS(=O)(=O)[C@@H](C)[C@H](C)c1ncc(Cl)cn1 [Example 80.0, (2S,3R)-3-(5-chloropyrimidin-2-yl)-N-(4-(4,6-dimethoxypyrimidin-5-yl)-5-(isopropoxymethyl)-4H-1,2,4-triazol-3-yl)butane-2-sulfonamide] | 2.4
COCc1nnc(NS(=O)(=O)[C@@H](C)[C@H](OC)c2ncc(Cl)cn2)n1C(COC)COC [Example 124.0, (1R,2S)-1-(5-Chloro-2-pyrimidinyl)-N-(4-(1,3-dimethoxy-2-propanyl)-5-(methoxymethyl)-4H-1,2,4-triazol-3-yl)-1-methoxy-2-propanesulfonamide] | 85
COc1ncnc(OC)c1-n1c(COC(F)F)nnc1NS(=O)(=O)[C@@H](C)[C@H](C)c1ncc(Cl)cn1 [Example 127.0, (2S,3R)-3-(5-chloropyrimidin-2-yl)-N-(5-((difluoromethoxy)methyl)-4-(4,6-dimethoxypyrimidin-5-yl)-4H-1,2,4-triazol-3-yl)butane-2-sulfonamide] | 38
COc1ncnc(OC)c1-n1c(COC(F)F)nnc1NS(=O)(=O)[C@@H](C)[C@H](OC)c1ncc(Cl)cn1 [Example 128.0, (1R,2S)-1-(5-chloropyrimidin-2-yl)-N-(5-((difluoromethoxy)methyl)-4-(4,6-dimethoxypyrimidin-5-yl)-4H-1,2,4-triazol-3-yl)-1-methoxypropane-2-sulfonamide] | 60
COCc1nnc(NS(=O)(=O)[C@@H](C)[C@H](C)c2ncc(OC)cn2)n1-c1c(OC)cccc1OC [Example 130.0] | 12
COCc1nnc(NS(=O)(=O)[C@@H](C)[C@H](OC)c2ncc(Cl)cn2)n1-c1c(F)cccc1F [Example 131.0] | 20
COCc1nnc(NS(=O)(=O)[C@@H](C)[C@H](OC)c2ncc(Cl)cn2)n1-c1ccccc1OC [Example 132.0] | 11
COc1ncnc(OC)c1-n1c(NS(=O)(=O)[C@@H](C)[C@H](OC)c2ncc(Cl)cn2)nnc1C(C)C [Example 133.0, (1R,2S)-1-(5-chloro-2-pyrimidinyl)-N-(4-(4,6-dimethoxy-5-pyrimidinyl)-5-(2-propanyl)-4H-1,2,4-triazol-3-yl)-1-methoxy-2-propanesulfonamide] | 22
COCc1nnc(NS(=O)(=O)[C@@H](C)[C@@H](OC(C)C)c2ncc(Cl)cn2)n1-c1c(OC)ncnc1OC [Example 134.0] | 12
COc1ncnc(OC)c1-n1c(COCC(F)(F)F)nnc1NS(=O)(=O)[C@@H](C)[C@H](OC)c1ncc(Cl)cn1 [Example 135.0, (1R,2S)-1-(5-chloro-2-pyrimidinyl)-N-(4-(4,6-dimethoxy-5-pyrimidinyl)-5-((2,2,2-trifluoroethoxy)methyl)-4H-1,2,4-triazol-3-yl)-1-methoxy-2-propanesulfonamide] | 40
COc1cccc(OC)c1-n1c(NS(=O)(=O)[C@@H](C)[C@H](C)c2ncc(Cl)cn2)nnc1C(F)(F)c1ccccn1 [Example 136.0] | 35
COc1cccc(OC)c1-n1c(NS(=O)(=O)[C@@H](C)[C@H](C)c2ncc(C)cn2)nnc1C(F)(F)c1ccccn1 [Example 137.0] | 230
COc1ncnc(OC)c1-n1c(NS(=O)(=O)[C@@H](C)[C@H](O)c2ncc(C)cn2)nnc1C(C)(C)c1ccccc1 [Example 138.0] | 860
CO[C@H](c1ncc(Cl)cn1)[C@H](C)S(=O)(=O)Nc1nnc(CC(F)(F)F)n1C1CCOCC1 [Example 139.0] | > 4200

Same assay, conditions: read-out: Activity hAPJ SPA EC50 IP

Compound | EC50 [nM]
COCc1nnc(NS(=O)(=O)[C@@H](C)[C@H](OC)c2ncc(Cl)cn2)n1-c1c(OC)ncnc1OC [Example 58.0, (1R,2S)-1-(5-chloropyrimidin-2yl)-N-(4-(4.6-dimethoxypyrimidin-5-yl)-5-(methoxymethyl)-4H-l,2,4-triazol-3-yl)-1-methoxypropane-2-sulfonamide] | 330
COCc1nnc(NS(=O)(=O)[C@@H](C)[C@H](OC)c2ncc(C)cn2)n1-c1c(OC)cccc1OC [Example 60.0, (1R,2S)-N-(4-(2.6-dimethoxyphenyl)-5-(methoxymethyl)-4H-1.2,4-triazol-3-yl)-1-methoxy-1-(5-methylpyrimidin-2-yl)propane-2-sulfonamide] | 22
COCc1nnc(NS(=O)(=O)[C@@H](C)[C@H](C)c2ncc(C)cn2)n1-c1c(OC)cccc1OC [Example 61.0, (2S,3R)-N-(4-(2,6-dimethoxyphenyl)-5-(methoxymethyl)-4H-1.2.4-triazol-3-yl)-3-(5-methylpyrimidin-2-yl)butane-2-sulfonamide] | 6.7
COCc1nnc(NS(=O)(=O)[C@@H](C)[C@@H](OC(C)C)c2ncc(C)cn2)n1-c1c(OC)cccc1OC [Example 62.0, (1S,2S)-N-(4-(2,6-dimethoxyphenyl)-5-(methoxymethyl)-4H-1,2,4-triazol-3-yl)-1-isopropoxy-1-(5-methylpyrimidin-2-yl)propane-2-sulfonamide] | 1000
COc1cccc(OC)c1-n1c(CO)nnc1NS(=O)(=O)[C@@H](C)[C@H](OC)c1ncc(Cl)cn1 [Example 64.0, (1R,2S)-1-(5-chloropyrimidin-2-yl)-N-(4-(2,6-dimethoxyphenyl)-5-(hydroxymethyl)-4H-1.2.4-triazol-3-yl)-1-methoxypropane-2-sulfonamide] | 20
COCc1nnc(NS(=O)(=O)[C@@H](C)[C@H](C)c2ncc(F)cn2)n1-c1c(OC)cccc1OC [Example 68.0, (2S,3R)-N-(4-(2,6-dimethoxyphenyl)-5-(methoxymethyl)-4H-1,2,4-triazol-3-yl)-3-(5-fluoropyrimidin-2-yl)butane-2-sulfonamide] | 33
COc1cccc(OC)c1-n1c(COC(C)C)nnc1NS(=O)(=O)[C@@H](C)[C@H](OC)c1ncc(Cl)cn1 [Example 69.0, (1R,2S)-1-(5-chloropyrimidin-2-yl)-N-(4-(2,6-dimethoxyphenyl)-5-(isopropoxymethyl)-4H-1,2,4-triazol-3-yl)-1-methoxypropane-2-sulfonamide] | 1.2
CCO[C@H](c1ncc(C)cn1)[C@H](C)S(=O)(=O)Nc1nnc(COC)n1-c1c(OC)cccc1OC [Example 73.0, (1R,2S)-N-(4-(2,6-dimethoxyphenyl)-5-(methoxymethyl)-4H-1,2,4-triazol-3-yl)-1-ethoxy-1-(5-methylpyrimidin-2-yl)propane-2-sulfonamide] | 37.5
COCc1nnc(NS(=O)(=O)[C@@H](C)[C@H](C)c2ccc(Cl)cn2)n1-c1c(OC)cccc1OC [Example 75.0, (2S,3R)-3-(5-chloropyridin-2-yl)-N-(4-(2,6-dimethoxyphenyl)-5-(methoxymethyl)-4H-1,2,4-triazol-3-yl)butane-2-sulfonamide] | 3.1
COCc1nnc(NS(=O)(=O)[C@@H](C)[C@H](OC)c2ccc(Cl)cn2)n1-c1c(OC)cccc1OC [Example 76.0, (1R,2S)-1-(5-chloropyridin-2-yl)-N-(4-(2,6-dimethoxyphenyl)-5-(methoxymethyl)-4H-1,2,4-triazol-3-yl)-1-methoxypropane-2-sulfonamide] | 4.8
